ChEMBL document CHEMBL1137408, “Acylguanidines as small-molecule beta-secretase inhibitors” (J Med Chem, 2006)

Assays:
[1] = target: Pepsin A (Homo sapiens, UniProt P0DJD9); assay: Inhibition of pepsin by FRET based peptide cleavage assay
[2] = target: Cathepsin D (Homo sapiens, UniProt P07339); assay: Inhibition of cathepsin D by FRET based peptide cleavage assay
[3] = tested on: CHO; assay: Decrease in beta amyloid protein level in CHO cells expressing human APP by ELISA; assay type: functional; conditions: Cricetulus griseus, read-out: ED50 (the source's name)
[4] = species: Homo sapiens; assay: Selectivity for BACE1 over Cathepsin D
[5] = target: Beta-secretase 1 (Homo sapiens, UniProt P56817); assay: Inhibition of human recombinant BACE1 by FRET based peptide cleavage assay
[6] = target: T1, Beta-secretase 2 (Homo sapiens, UniProt Q9Y5Z0); assay: Inhibition of BACE2 by FRET based peptide cleavage assay
T1 sequence (Q9Y5Z0 whole entry): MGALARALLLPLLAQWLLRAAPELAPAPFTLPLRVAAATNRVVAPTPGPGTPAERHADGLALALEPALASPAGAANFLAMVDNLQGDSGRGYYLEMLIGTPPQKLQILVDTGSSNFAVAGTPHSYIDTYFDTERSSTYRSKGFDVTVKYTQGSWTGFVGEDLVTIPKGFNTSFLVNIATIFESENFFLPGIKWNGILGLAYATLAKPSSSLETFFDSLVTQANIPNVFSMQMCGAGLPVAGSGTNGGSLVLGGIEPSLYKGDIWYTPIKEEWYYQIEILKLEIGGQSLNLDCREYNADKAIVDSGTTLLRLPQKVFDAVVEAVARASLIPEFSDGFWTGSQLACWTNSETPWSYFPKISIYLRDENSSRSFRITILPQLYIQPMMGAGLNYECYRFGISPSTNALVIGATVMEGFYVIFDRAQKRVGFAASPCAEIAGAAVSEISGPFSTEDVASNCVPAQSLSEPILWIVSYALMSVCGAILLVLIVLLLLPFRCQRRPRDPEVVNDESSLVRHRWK

[7] = tested on: H4; assay: Decrease in beta amyloid protein level in wild type H4 cells by RICA; assay type: functional, cell-based; conditions: Homo sapiens
[8] = tested on: H4; assay: Decrease in beta CTF level in wild type H4 cells by RICA; assay type: functional, cell-based; conditions: Homo sapiens

Chain of Beta-secretase 1 (P56817 whole entry): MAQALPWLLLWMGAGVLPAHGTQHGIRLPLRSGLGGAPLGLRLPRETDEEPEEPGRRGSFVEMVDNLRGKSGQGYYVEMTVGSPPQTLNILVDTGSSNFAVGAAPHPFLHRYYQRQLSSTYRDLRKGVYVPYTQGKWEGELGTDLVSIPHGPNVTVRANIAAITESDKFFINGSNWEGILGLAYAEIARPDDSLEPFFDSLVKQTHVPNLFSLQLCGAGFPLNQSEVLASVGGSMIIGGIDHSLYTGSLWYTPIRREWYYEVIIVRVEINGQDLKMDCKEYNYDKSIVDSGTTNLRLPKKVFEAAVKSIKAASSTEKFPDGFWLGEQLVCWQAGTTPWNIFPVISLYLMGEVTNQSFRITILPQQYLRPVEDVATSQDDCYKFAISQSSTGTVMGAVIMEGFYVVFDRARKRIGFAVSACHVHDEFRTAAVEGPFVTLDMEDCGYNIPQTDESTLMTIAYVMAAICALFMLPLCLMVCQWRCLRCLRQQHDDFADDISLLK
Chain of Cathepsin D (P07339 65-162 limits assumed): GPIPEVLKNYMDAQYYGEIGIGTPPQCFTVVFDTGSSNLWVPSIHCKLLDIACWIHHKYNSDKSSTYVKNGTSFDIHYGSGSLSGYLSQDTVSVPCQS
Chain of Cathepsin D (P07339 169-412 limits assumed): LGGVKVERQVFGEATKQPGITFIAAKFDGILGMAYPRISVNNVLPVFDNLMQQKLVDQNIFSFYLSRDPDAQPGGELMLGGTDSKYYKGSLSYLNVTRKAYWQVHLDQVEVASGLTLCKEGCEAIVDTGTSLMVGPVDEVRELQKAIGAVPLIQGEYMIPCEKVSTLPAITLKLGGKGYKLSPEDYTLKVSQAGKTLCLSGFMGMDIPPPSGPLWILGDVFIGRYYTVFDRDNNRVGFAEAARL
Chain of Pepsin A (P0DJD9 whole entry): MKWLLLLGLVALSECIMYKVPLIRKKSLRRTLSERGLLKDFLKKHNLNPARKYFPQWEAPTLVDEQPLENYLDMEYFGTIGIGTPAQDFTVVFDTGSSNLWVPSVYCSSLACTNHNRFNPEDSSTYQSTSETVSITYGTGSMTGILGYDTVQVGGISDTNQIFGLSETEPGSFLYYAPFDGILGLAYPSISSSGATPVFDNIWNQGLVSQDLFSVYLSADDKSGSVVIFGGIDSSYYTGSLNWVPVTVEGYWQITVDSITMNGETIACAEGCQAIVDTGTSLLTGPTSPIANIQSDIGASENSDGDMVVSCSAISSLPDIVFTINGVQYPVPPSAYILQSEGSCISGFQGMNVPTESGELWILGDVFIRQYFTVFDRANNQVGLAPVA

Compound | IC50 [1] | IC50 [2] | EC50 [3] | Selectivity ratio [4] | IC50 [5] | IC50 [6] | Activity [7] | Activity [8]
NC(N)=NC(=O)Cn1c(-c2ccccc2)ccc1C12CC3CC(CC(C3)C1)C2 | > 50 µM | 30.2 µM | 3.1 µM | > 50 | 0.6 µM | 12.9 µM | – | –
CCCOc1ccc(-c2ccc(-c3ccccc3Cl)n2CC(=O)NC(=N)NCCCO)cc1 | > 50 µM | 5.9 µM | – | – | 0.11 µM | 0.34 µM | – | –
N=C(N)NC(=O)Cn1c(-c2ccccc2)ccc1-c1ccccc1 | > 50 µM | – | – | – | – | – | Dose-dependent effect | Dose-dependent effect
N/C(=N/C(=O)Cn1c(-c2ccccc2)ccc1C12CC3CC(CC(C3)C1)C2)NCCCO | > 50 µM | 19.4 µM | 1.8 µM | > 50 | 0.24 µM | 3.5 µM | – | –
CC(=O)c1ccc(Oc2ccc(-c3ccc(-c4ccccc4Cl)n3CC(=O)NC(=N)N)cc2)cc1 | > 50 µM | – | 8.6 µM | – | – | – | – | –
CCCOc1ccc(-c2ccc(-c3ccccc3Cl)n2CC(=O)/N=C(/N)NCCCO)cc1 | – | – | – | > 50 | – | – | – | –
